PubChem BioAssay AID328 (DTP/NCI, 2004)
Where “and” joins values, the source holds several entries; their conditions need not be identical. Identical values can stand only once. Inconclusive results and toxic doses are left out.

System: BDF1 mice, P388 leukemia ip, median survival T/C
Test: NCI In Vivo Anticancer Drug Screen. Data for tumor model P388 Leukemia (intraperitoneal) in B6D2F1 (BDF1) mice
Details: endpoint: median survival time, higher = longer survival
Summary of the method: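 Survival ratio, drug arm over vehicle arm, in mice with a transplanted tumour.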

[1] = dose: 25.0 mg/kg/injection, schedule: Q01DX009 (ip), vehicle: saline with Tween-80
[2] = dose: 50.0 mg/kg/injection, schedule: Q01DX009 (ip), vehicle: saline with Tween-80
[3] = dose: 100.0 mg/kg/injection, schedule: Q01DX009 (ip), vehicle: saline with Tween-80
[4] = dose: 25.0 mg/kg/injection, schedule: Q04DX003 (ip), vehicle: Klucel (hydroxypropylcellulose) (HPC)
[5] = dose: 50.0 mg/kg/injection, schedule: Q04DX003 (ip), vehicle: Klucel (hydroxypropylcellulose) (HPC)
[6] = dose: 100.0 mg/kg/injection, schedule: Q04DX003 (ip), vehicle: Klucel (hydroxypropylcellulose) (HPC)
[7] = dose: 100.0 mg/kg/injection, schedule: Q04DX003 (ip), vehicle: saline with Tween-80
[8] = dose: 200.0 mg/kg/injection, schedule: Q04DX003 (ip), vehicle: saline with Tween-80
[9] = dose: 200.0 mg/kg/injection, schedule: Q01DX009 (ip), vehicle: saline with Tween-80

In the case of `COc1cccc2c(Cl)c(CCl)c(C)nc12`, the T/C (dose: 6.25 mg/kg/injection, schedule: Q01DX009 (ip), vehicle: saline with Tween-80) is reported as 94 % of control, the T/C (dose: 12.5 mg/kg/injection, schedule: Q01DX009 (ip), vehicle: saline with Tween-80) is reported as 110 % of control and the T/C [1] is reported as 103 % of control. For the same molecule, the T/C [2] was 103 % of control and the T/C [3] was 103 % of control.

With `CCCCCCCCCCCCCCCCCC[n+]1cccc(C(=O)N2CCOCC2)c1` the T/C (dose: 1.0 mg/kg/injection, schedule: Q01DX009 (ip), vehicle: saline with Tween-80) was 108 % of control, the T/C (dose: 2.0 mg/kg/injection, schedule: Q01DX009 (ip), vehicle: Klucel (hydroxypropylcellulose) (HPC)) was 100 % of control and the T/C (dose: 2.0 mg/kg/injection, schedule: Q01DX009 (ip), vehicle: saline with Tween-80) was 95 % of control. For the same molecule, the T/C (dose: 4.0 mg/kg/injection, schedule: Q01DX009 (ip), vehicle: Klucel (hydroxypropylcellulose) (HPC)) was 90 % of control, the T/C (dose: 4.0 mg/kg/injection, schedule: Q01DX009 (ip), vehicle: saline with Tween-80) was 100 % of control and the T/C (dose: 8.0 mg/kg/injection, schedule: Q01DX009 (ip), vehicle: Klucel (hydroxypropylcellulose) (HPC)) was 109 % of control. The T/C (dose: 8.0 mg/kg/injection, schedule: Q01DX009 (ip), vehicle: saline with Tween-80) was 108 % of control, the T/C (dose: 16.0 mg/kg/injection, schedule: Q01DX009 (ip), vehicle: Klucel (hydroxypropylcellulose) (HPC)) was 104 % of control and the T/C (dose: 16.0 mg/kg/injection, schedule: Q01DX009 (ip), vehicle: saline with Tween-80) was 121 % of control. The T/C [4] was 100 % of control, the T/C (dose: 32.0 mg/kg/injection, schedule: Q01DX009 (ip), vehicle: Klucel (hydroxypropylcellulose) (HPC)) was 113 % of control and the T/C [5] was 109 % of control. The T/C [6] was 90 % of control.

In the case of `CC(=O)Nc1ccc(Cl)c(Cl)c1`, the T/C (dose: 100.0 mg/kg/injection, schedule: Q04DX003 (ip), vehicle: saline sonified) is reported as 100 % of control, the T/C [7] is reported as 90 % of control and the T/C (dose: 200.0 mg/kg/injection, schedule: Q04DX003 (ip), vehicle: saline sonified) is reported as 120 % of control. For the same molecule, the T/C [8] was 100 % of control and the T/C (dose: 400.0 mg/kg/injection, schedule: Q04DX003 (ip), vehicle: saline sonified) was 104 % of control.

`CC1OC(OCc2cc(O)c3c(c2)C(C2OC(CO)C(O)C(O)C2O)c2cccc(O)c2C3=O)C(O)C(O)C1O` (stereo unspecified) was tested, and the T/C (dose: 50.0 mg/kg/injection, schedule: Q04DX003 (ip), vehicle: water) was 105 % of control, the T/C (dose: 100.0 mg/kg/injection, schedule: Q04DX003 (ip), vehicle: water) was 101 % of control and the T/C (dose: 200.0 mg/kg/injection, schedule: Q04DX003 (ip), vehicle: water) was 90 % of control.

`N#Cc1c[nH]n2c(=S)ncnc12` was tested, and the T/C [2] was 107 % of control, the T/C [3] was 90 % of control and the T/C [7] was 104 % of control. The T/C [9] was 93 % of control, the T/C [8] was 109 % of control and the T/C (dose: 300.0 mg/kg/injection, schedule: Q01DX009 (ip), vehicle: saline with Tween-80) was 99 % of control.

For `CC1(C)N=C(N)N=C(N)N1c1ccc(CCCCc2ccc(S(=O)(=O)F)cc2Cl)c(Cl)c1`, the T/C (dose: 5.0 mg/kg/injection, schedule: Q01DX009 (ip), vehicle: saline with Tween-80) was 157 % of control, the T/C (dose: 7.5 mg/kg/injection, schedule: Q01DX009 (ip), vehicle: saline with Tween-80) was 150 % of control and 166 % of control and the T/C (dose: 8.0 mg/kg/injection, schedule: Q04DX003 (ip), vehicle: saline with Tween-80) was 168 % of control. The T/C (dose: 11.5 mg/kg/injection, schedule: Q01DX009 (ip), vehicle: saline with Tween-80) was 200 % of control, the T/C (dose: 12.0 mg/kg/injection, schedule: Q04DX003 (ip), vehicle: saline with Tween-80) was 186 % of control and the T/C (dose: 17.0 mg/kg/injection, schedule: Q01DX009 (ip), vehicle: saline with Tween-80) was 188 % of control and 191 % of control. For the same molecule, the T/C (dose: 18.0 mg/kg/injection, schedule: Q04DX003 (ip), vehicle: saline with Tween-80) was 200 % of control, the T/C [1] was 208 % of control and 220 % of control and the T/C (dose: 26.0 mg/kg/injection, schedule: Q04DX003 (ip), vehicle: saline with Tween-80) was 200 % of control. For the same molecule, the T/C (dose: 26.5 mg/kg/injection, schedule: Q04DX003 (ip), vehicle: saline with Tween-80) was 195 % of control, the T/C (dose: 37.0 mg/kg/injection, schedule: Q01DX009 (ip), vehicle: saline with Tween-80) was 176 % of control and the T/C (dose: 40.0 mg/kg/injection, schedule: Q04DX003 (ip), vehicle: saline with Tween-80) was 209 % of control. The T/C [2] was 241 % of control, the T/C (dose: 60.0 mg/kg/injection, schedule: Q04DX003 (ip), vehicle: saline with Tween-80) was 176 % of control and the T/C (dose: 88.0 mg/kg/injection, schedule: Q04DX003 (ip), vehicle: saline with Tween-80) was 209 % of control. For the same molecule, the T/C (dose: 90.0 mg/kg/injection, schedule: Q04DX003 (ip), vehicle: saline with Tween-80) was 180 % of control, the T/C [3] was 116 % of control and the T/C (dose: 133.0 mg/kg/injection, schedule: Q04DX003 (ip), vehicle: saline with Tween-80) was 272 % of control. The T/C [8] was 272 % of control.

In the case of `CCOC(=O)C(OCC)P(=O)(OCC)OCC` (stereo unspecified), the T/C [4] is reported as 93 % of control, the T/C [5] is reported as 97 % of control and the T/C [6] is reported as 91 % of control. The T/C (dose: 200.0 mg/kg/injection, schedule: Q04DX003 (ip), vehicle: Klucel (hydroxypropylcellulose) (HPC)) was 90 % of control and the T/C (dose: 400.0 mg/kg/injection, schedule: Q04DX003 (ip), vehicle: Klucel (hydroxypropylcellulose) (HPC)) was 93 % of control.

With `CNC1=CC(=O)C1(F)F` the T/C (dose: 25.0 mg/kg/injection, schedule: Q01DX001 (ip), vehicle: saline sonified) was 100 % of control, the T/C (dose: 50.0 mg/kg/injection, schedule: Q01DX001 (ip), vehicle: saline sonified) was 109 % of control and the T/C (dose: 100.0 mg/kg/injection, schedule: Q01DX001 (ip), vehicle: saline sonified) was 100 % of control.

In the case of `COc1ccc2[nH]c3c(c2c1)CSc1ccccc1-3`, the T/C (dose: 100.0 mg/kg/injection, schedule: Q01DX001 (ip), vehicle: Klucel (hydroxypropylcellulose) (HPC)) is reported as 91 % of control, the T/C (dose: 200.0 mg/kg/injection, schedule: Q01DX001 (ip), vehicle: Klucel (hydroxypropylcellulose) (HPC)) is reported as 108 % of control and the T/C (dose: 400.0 mg/kg/injection, schedule: Q01DX001 (ip), vehicle: Klucel (hydroxypropylcellulose) (HPC)) is reported as 108 % of control.

In the case of `O=C1c2ccccc2C(=O)N1CNc1ncccn1`, the T/C (dose: 6.25 mg/kg/injection, schedule: Q01DX005 (ip), vehicle: saline with Tween-80) is reported as 95 % of control, the T/C (dose: 12.5 mg/kg/injection, schedule: Q01DX005 (ip), vehicle: saline with Tween-80) is reported as 98 % of control and the T/C (dose: 25.0 mg/kg/injection, schedule: Q01DX005 (ip), vehicle: saline with Tween-80) is reported as 90 % of control. The T/C (dose: 100.0 mg/kg/injection, schedule: Q01DX005 (ip), vehicle: saline with Tween-80) was 108 % of control and the T/C (dose: 200.0 mg/kg/injection, schedule: Q01DX005 (ip), vehicle: saline with Tween-80) was 105 % of control.

For `CCOC(=O)C(NC(=O)C(Cc1ccc(N(CCCl)CCCl)cc1)NC(C)=O)C(C)C` (stereo unspecified), the T/C (dose: 5.0 mg/kg/injection, schedule: Q04DX003 (ip), vehicle: other) was 118 % of control, the T/C (dose: 10.0 mg/kg/injection, schedule: Q04DX003 (ip), vehicle: other) was 118 % of control and the T/C (dose: 40.0 mg/kg/injection, schedule: Q04DX003 (ip), vehicle: other) was 151 % of control. For the same molecule, the T/C (dose: 66.0 mg/kg/injection, schedule: Q04DX003 (ip), vehicle: saline with Tween-80) was 168 % of control, the T/C [7] was 186 % of control and the T/C (dose: 150.0 mg/kg/injection, schedule: Q04DX003 (ip), vehicle: saline with Tween-80) was 245 % of control.

`N#CCCN(C(=S)Nc1ccc(Cl)c(Cl)c1)C1CCCCC1` was tested, and the T/C [2] was 98 % of control and 117 % of control, the T/C [3] was 100 % of control and 119 % of control and the T/C [9] was 103 % of control and 119 % of control. The T/C (dose: 400.0 mg/kg/injection, schedule: Q01DX009 (ip), vehicle: saline with Tween-80) was 106 % of control.

With `NS(=O)(=O)Cc1ccccc1` the T/C (dose: 25.0 mg/kg/injection, schedule: Q04DX003 (ip), vehicle: saline) was 100 % of control, the T/C (dose: 50.0 mg/kg/injection, schedule: Q04DX003 (ip), vehicle: saline) was 100 % of control and the T/C (dose: 100.0 mg/kg/injection, schedule: Q04DX003 (ip), vehicle: saline) was 100 % of control.

In the case of `O=C(O)c1ccc(Oc2nc3ccccc3s2)cc1`, the T/C [1] is reported as 95 % of control, the T/C [2] is reported as 95 % of control and the T/C [3] is reported as 104 % of control.

In the case of `Cc1ccc(S(=O)(=O)NC(c2ccccc2)(c2ccccc2)c2ccccc2)cc1`, the T/C (dose: 100.0 mg/kg/injection, schedule: Q01DX009 (ip), vehicle: Klucel (hydroxypropylcellulose) (HPC)) is reported as 113 % of control, the T/C (dose: 200.0 mg/kg/injection, schedule: Q01DX009 (ip), vehicle: Klucel (hydroxypropylcellulose) (HPC)) is reported as 109 % of control and the T/C (dose: 400.0 mg/kg/injection, schedule: Q01DX009 (ip), vehicle: Klucel (hydroxypropylcellulose) (HPC)) is reported as 90 % of control.
